This passage reports IC50 results from ChEMBL document CHEMBL4715851, “Research advances on selective phosphatidylinositol 3 kinase δ (PI3Kδ) inhibitors” (Bioorg Med Chem Lett, 2020).

The target of experiment [1] is T1, Phosphatidylinositol 4,5-bisphosphate 3-kinase catalytic subunit delta isoform (Homo sapiens, UniProt O00329).
T1 sequence (O00329 whole entry): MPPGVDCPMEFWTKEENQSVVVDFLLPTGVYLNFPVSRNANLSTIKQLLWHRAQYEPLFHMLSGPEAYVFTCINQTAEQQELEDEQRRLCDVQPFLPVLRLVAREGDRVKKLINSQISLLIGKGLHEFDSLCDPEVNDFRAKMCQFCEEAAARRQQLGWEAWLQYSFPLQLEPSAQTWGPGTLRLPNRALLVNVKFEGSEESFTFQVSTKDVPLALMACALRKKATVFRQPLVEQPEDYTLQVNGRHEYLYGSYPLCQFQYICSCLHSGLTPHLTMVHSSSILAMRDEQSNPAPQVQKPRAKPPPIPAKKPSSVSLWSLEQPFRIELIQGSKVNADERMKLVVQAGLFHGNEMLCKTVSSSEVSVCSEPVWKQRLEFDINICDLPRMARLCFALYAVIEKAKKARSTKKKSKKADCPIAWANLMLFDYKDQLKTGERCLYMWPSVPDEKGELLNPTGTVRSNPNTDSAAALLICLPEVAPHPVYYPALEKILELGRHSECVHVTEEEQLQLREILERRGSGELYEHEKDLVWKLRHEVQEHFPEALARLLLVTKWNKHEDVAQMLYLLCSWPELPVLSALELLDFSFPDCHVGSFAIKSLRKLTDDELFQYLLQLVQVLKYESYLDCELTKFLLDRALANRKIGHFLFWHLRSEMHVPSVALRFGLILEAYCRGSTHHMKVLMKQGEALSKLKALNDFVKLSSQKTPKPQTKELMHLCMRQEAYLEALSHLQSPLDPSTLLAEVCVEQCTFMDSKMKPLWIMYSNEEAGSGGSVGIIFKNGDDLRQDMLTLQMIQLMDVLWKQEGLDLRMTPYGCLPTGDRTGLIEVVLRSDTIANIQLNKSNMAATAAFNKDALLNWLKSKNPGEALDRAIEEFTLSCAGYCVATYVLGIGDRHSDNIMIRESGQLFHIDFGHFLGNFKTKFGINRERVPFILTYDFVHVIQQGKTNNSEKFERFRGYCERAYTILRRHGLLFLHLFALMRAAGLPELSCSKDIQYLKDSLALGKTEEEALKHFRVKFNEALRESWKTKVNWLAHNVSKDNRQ
The experiment can be described thus: Inhibition of PI3K-delta (unknown origin).

Experiment [2] is described as follows: Inhibition of C-terminal PI3Kdelta/p85 (unknown origin) expressed in baculovirus expression system using Phosphatidylinositol as substrate in presence of ATP by TR-FRET assay. Details: species or system Homo sapiens. (In general: In TR-FRET formats the signal depends on donor and acceptor labels being close together.)

Bounds are passed on as bounds.

In general, IC50 refers to the point on the concentration scale where inhibition reaches its midpoint. `C=Cc1ccc2oc3ccc(=O)n(-c4cccc(NC(=O)c5ccc(OC)nc5)c4)c3c2c1` gave an IC50 in experiment [1] of 170 nM.
On to `C[C@H](Nc1ncnc2scnc12)c1cc2cccc(-c3cnn(C)c3)c2c(=O)n1-c1ccccc1`, for which the IC50 in experiment [2] was under 100 nM.
